How the values were obtained:
Assay type in all cases: cell-based
[1] = system: multi-species biofilm (beneficial/commensal species, periodontal pathogens, cariogenic pathogens); assay: Multi-species biofilm composition, relative proportions and group changes
Procedure: Biofilms are grown vertically on Calcium Deficient Hydroxyapatite (CAD-HA) disks (Hitemco Medical, Old Bethpage, USA) using the Amsterdam Active Adhesion model. […] After this 24 h, disks are rinsed 3 times a day for 3 minutes (RT, 250 rpm), for 3 consecutive days, by transferring the lid containing the disks to a new 24-well plate containing 2 mL/well of the appropriate substrate solution. As a negative control, PBS (pH 5.7) without substrate supplementation is used. N-acetyl-D-glucosamine (NADG), α-D-lactose, D-(+)-trehalose and D-(+)-raffinose are selected to determine their effects on multi-species biofilm composition. Repeated rinsing of the biofilms with the substrates at a concentration of 1 M results in a significant decrease in absolute numbers in at least four of the pathogenic bacterial species tested in the assay, in comparison to the control, the results of which are described in Table 1 below. Note, NADG decreased absolute numbers of S. sobrinus. Absolute abundances of bacterial species are shown as mean ± SD (n = 3) logarithmic values of the genome equivalents per millilitre (log(Geq/mL)).

[2] = system: human oral keratinocytes (HOK-18A); assay: Inflammatory mediator gene expression in keratinocytes exposed to substrate-treated biofilms (SYBR RT-qPCR); conditions: relative to control, n = 3
Procedure: Cultures of immortalized human oral keratinocytes (HOK-18A) are grown. […] The IL-8 levels in the cellular supernatant are determined as well. RNA is converted to cDNA and relative expression of inflammatory mediator genes is determined as described above with respect to the cellular housekeeping gene β-actin.
In HOKs exposed to substrate-treated (substrate concentrations of […]) multi-species biofilms, there are mostly decreases in inflammatory mediator gene expression as measured via SYBR RT-qPCR, the results of which are detailed in Table 7:
Fold changes in inflammatory mediator gene expression from human oral keratinocytes (HOK-18A) exposed to substrate-treated multi-species biofilms are determined relatively to the control through the 2^^-ΔΔCt method and are shown as the geometric mean (C.I.) (n = 3) of the 2^^-ΔΔCt values. All substrates are dissolved in PBS at a concentration of 1 M (upper part) or 1%(w/v) (lower part). Values between 0 and 1 represent relative downregulation, values >1 represent relative upregulation.

[3] = system: F. nucleatum; assay: Multi-species biofilm composition, absolute abundance (Geq/mL); conditions: repeated rinsing
Procedure: (§1) Biofilms are grown vertically on Calcium Deficient Hydroxyapatite (CAD-HA) disks (Hitemco Medical, Old Bethpage, USA) using the Amsterdam Active Adhesion model. Biofilms are allowed to establish during 24 h (37° C., 170 rpm) under microaerophilic conditions (6% O2, 7% CO2, 7% H2, 80% N2). After this 24 h, disks are rinsed 3 times a day for 3 minutes (RT, 250 rpm), for 3 consecutive days, by transferring the lid containing the disks to a new 24-well plate containing 2 mL/well of the appropriate substrate solution. As a negative control, PBS (pH 5.7) without substrate supplementation is used.
(§2) N-acetyl-D-glucosamine (NADG), α-D-lactose, D-(+)-trehalose and D-(+)-raffinose are selected to determine their effects on multi-species biofilm composition. […] decrease in absolute numbers in at least four of the pathogenic bacterial species tested in the assay, in comparison to the control, the results of which are described in Table 1 below. Note, NADG decreased absolute numbers of S. sobrinus. Absolute abundances of bacterial species are shown as mean ± SD (n = 3) logarithmic values of the genome equivalents per millilitre (log(Geq/mL)).

[4] = system: S. salivarius; assay: as above; conditions: repeated rinsing
Procedure: as §1, §2

[5] = system: S. mutans; assay: as above; conditions: repeated rinsing
Procedure: as §1, §2

[6] = system: S. sanguinis; assay: as above; conditions: repeated rinsing
Procedure: as §1, §2

[7] = system: V. parvula; assay: as above; conditions: for absolute abundance of V. parvula (VP), mean ± SD log (Geq/mL): repeated rinsing
Procedure: as §1, §2

[8] = system: A. viscosus; assay: as above; conditions: for absolute abundance of A. viscosus (Av), mean ± SD log (Geq/mL): repeated rinsing
Procedure: as §1, §2

[9] = system: P. intermedia virulence genes; assay: Virulence gene expression in multi-species biofilm (SYBR RT-qPCR); conditions: for fold change in DnaJ expression, geometric mean (95% C.I.) / fold change in DnaK expression, geometric mean (95% C.I.) / fold change in ECF expression, geometric mean (95% C.I.) / fold change in GroES expression, geometric mean (95% C.I.) / fold change in HtpG expression, geometric mean (95% C.I.) / fold change in KpsD expression, geometric mean (95% C.I.) / fold change in adpc expression, geometric mean (95% C.I.) / fold change in clpB expression, geometric mean (95% C.I.) / fold change in inpA expression, geometric mean (95% C.I.) / fold change in phg expression, geometric mean (95% C.I.): relative to control = 1
Procedure: as §1
The virulence of the substrate-treated multi-species biofilms are evaluated by analyzing the relative expression of 33 genes that are recognized as being related to some form of virulence and from 4 periodontal pathogens.
Expression of bacterial virulence genes is analyzed through SYBR RT-qPCR and normalized for bacterial housekeeping gene expression. […] These effects are illustrated in Tables 6a and 6b:
Note, for Table 6d, fold changes in virulence gene expression are determined relatively to the control condition through the 2^^-ΔΔCt method and are shown as the geometric mean (C.I.) (n = 3) of the 2^^-ΔΔCt values. All substrates are dissolved in PBS at a concentration of 1 M (upper part) or 1%(w/v) (lower part). Values between 0 and 1 represent relative downregulation, values >1 represent relative upregulation. […] NADG: N-acetyl-D-glucosamine; C.I.: 95% confidence interval.

[10] = Table 1a, substrate 1 M, listed as D-(+)-trehalose
[11] = Table 3, separate experiments, concentration not given
[12] = HOK-18A exposed to biofilms treated with substrate 1% (w/v)
[13] = HOK-18A exposed to biofilms treated with substrate 1 M
[14] = lower part of Table 6d, head prints 1 M (lower part 1%(w/v))
[15] = upper part of Table 6d, substrate 1 M, n = 3

OC[C@H]1O[C@H](O[C@H]2O[C@H](CO)[C@@H](O)[C@H](O)[C@H]2O)[C@H](O)[C@@H](O)[C@@H]1O [D-trehalose, D-(+)-trehalose]
relative proportion of beneficial or commensal species in biofilm ([1]; Table 1a, substrate 1 M): 88.98 (+/- 9.12)^∗ % (Geq/mL)
relative proportion of cariogenic pathogens in biofilm ([1]; Table 1a, substrate 1 M): 9.22 (+/- 8.55) % (Geq/mL)
relative proportion of periodontal pathogens in biofilm ([1]; Table 1a, substrate 1 M): 1.80 (+/- 1.04)^∗ % (Geq/mL)
relative proportion of beneficial or commensal species in biofilm [1, 10]: 88.98±9.12 % (Geq/mL)
relative proportion of cariogenic pathogens in biofilm [1, 10]: 9.22±8.55 % (Geq/mL)
relative proportion of periodontal pathogens in biofilm [1, 10]: 1.80±1.04 % (Geq/mL)
relative proportion of beneficials/commensals in biofilm [1, 11]: 73.55 (+/- 2.84) % (Geq/mL)
relative proportion of cariogenic pathogens in biofilm [1, 11]: 0.21 (+/- 0.05) % (Geq/mL)
relative proportion of periodontal pathogens in biofilm [1, 11]: 26.23 (+/- 2.88) % (Geq/mL)
fold change in IL-1β gene expression, geometric mean (C.I.) [2, 12]: 1.06 (0.55-2.06) fold
fold change in IL-6 gene expression, geometric mean (C.I.) [2, 12]: 1.00 (0.46-2.17) fold
fold change in IL-8 gene expression, geometric mean (C.I.) [2, 12]: 1.32 (0.89-1.94)^∗ fold
fold change in MMP-8 gene expression, geometric mean (C.I.) [2, 12]: 0.66 (0.46-0.93) fold
fold change in TNF-α gene expression, geometric mean (C.I.) [2, 12]: 0.94 (0.54-1.64) fold
fold change in IL-1β gene expression, geometric mean (C.I.) [2, 13]: 0.79 (0.45-1.38) fold
fold change in IL-6 gene expression, geometric mean (C.I.) [2, 13]: 1.27 (0.11-14.86) fold
fold change in IL-8 gene expression, geometric mean (C.I.) [2, 13]: 0.22 (0.15-0.34)^∗ fold
fold change in MMP-8 gene expression, geometric mean (C.I.) [2, 13]: 0.81 (0.68-0.95) fold
fold change in TNF-α gene expression, geometric mean (C.I.) [2, 13]: 0.66 (0.41-1.06)^∗ fold
absolute abundance of F. nucleatum (Fn), mean ± SD log (Geq/mL) ([3]; substrate 1% (w/v)): 9.35 ± 0.20 log (Geq/mL)
absolute abundance of F. nucleatum (Fn), mean ± SD log (Geq/mL) ([3]; substrate 1 M in PBS, n = 3): 6.51 ± 0.43^∗ log (Geq/mL)
absolute abundance of S. salivarius, mean ± SD log (Geq/mL) ([4]; substrate 1% (w/v)): 2.65 ± 0.00 log (Geq/mL)
absolute abundance of S. salivarius, mean ± SD log (Geq/mL) ([4]; substrate 1 M in PBS, n = 3): 6.19 ± 0.07^∗ log (Geq/mL)
absolute abundance of S. mutans, mean ± SD log (Geq/mL) ([5]; substrate 1% (w/v)): 7.55 ± 0.25 log (Geq/mL)
absolute abundance of S. mutans, mean ± SD log (Geq/mL) ([5]; substrate 1 M in PBS, n = 3): 8.50 ± 0.29^∗ log (Geq/mL)
absolute abundance of S. sanguinis, mean ± SD log (Geq/mL) ([6]; substrate 1% (w/v)): 8.42 ± 0.43 log (Geq/mL)
absolute abundance of S. sanguinis, mean ± SD log (Geq/mL) ([6]; substrate 1 M in PBS, n = 3): 6.43 ± 0.97 log (Geq/mL)
absolute abundance of V. parvula (VP), mean ± SD log (Geq/mL) ([7]; substrate 1% (w/v)): 10.07 ± 0.28 log (Geq/mL)
reduction of V. parvula numbers in comparison to the control ([7]; substrate 1 M): ~ 0.7 log(Geq/mL)
absolute abundance of V. parvula (VP), mean ± SD log (Geq/mL) ([7]; substrate 1 M in PBS, n = 3): 9.44 ± 0.25^∗ log (Geq/mL)
absolute abundance of A. viscosus (Av), mean ± SD log (Geq/mL) ([8]; substrate 1% (w/v)): 8.04 ± 0.28 log (Geq/mL)
decrease in A. viscosus numbers in comparison to the control ([8]; substrate 1 M): 1.9-2.5 log(Geq/mL)
absolute abundance of A. viscosus (Av), mean ± SD log (Geq/mL) ([8]; substrate 1 M in PBS, n = 3): 6.05 ± 1.12^∗ log (Geq/mL)
fold change in DnaJ expression, geometric mean (95% C.I.) [9, 14]: 0.62 (0.08-4.67) fold
fold change in DnaK expression, geometric mean (95% C.I.) [9, 14]: 0.78 (0.44-1.36) fold
fold change in ECF expression, geometric mean (95% C.I.) [9, 14]: 0.69 (0.53-0.91) fold
fold change in GroES expression, geometric mean (95% C.I.) [9, 14]: 1.22 (0.61-2.45) fold
fold change in HtpG expression, geometric mean (95% C.I.) [9, 14]: 0.69 (0.42-1.12) fold
fold change in KpsD expression, geometric mean (95% C.I.) [9, 14]: 1.26 (0.52-3.08) fold
fold change in adpc expression, geometric mean (95% C.I.) [9, 14]: 0.64 (0.29-1.4) fold
fold change in clpB expression, geometric mean (95% C.I.) [9, 14]: 1.30 (0.44-3.83) fold
fold change in inpA expression, geometric mean (95% C.I.) [9, 14]: 0.56 (0.31-1.01)^∗ fold
fold change in phg expression, geometric mean (95% C.I.) [9, 14]: 0.86 (0.82-0.89) fold
impact on P. intermedia virulence gene expression ([9]; substrate 1% (w/v)): limited impact
downregulation of P. intermedia virulence gene expression ([9]; substrate 1 M): 5 fold
fold change in DnaJ expression, geometric mean (95% C.I.) [9, 15]: 1.81 (1.21-2.71) fold
fold change in DnaK expression, geometric mean (95% C.I.) [9, 15]: 8.82 (6.83-11.38)^∗ fold
fold change in ECF expression, geometric mean (95% C.I.) [9, 15]: 6.97 (1.65-29.40)^∗ fold
fold change in GroES expression, geometric mean (95% C.I.) [9, 15]: 11.52 (2.46-53.90)^∗ fold
fold change in HtpG expression, geometric mean (95% C.I.) [9, 15]: 0.67 (0.43-1.03) fold
fold change in KpsD expression, geometric mean (95% C.I.) [9, 15]: 0.59 (0.47-0.75) fold
fold change in adpc expression, geometric mean (95% C.I.) [9, 15]: 1.45 (0.76-2.77) fold
fold change in clpB expression, geometric mean (95% C.I.) [9, 15]: 1.90 (0.77-4.68) fold
fold change in inpA expression, geometric mean (95% C.I.) [9, 15]: 0.81 (0.41-1.63) fold
fold change in phg expression, geometric mean (95% C.I.) [9, 15]: 0.20 (0.14-0.29)^∗ fold
